Data: ChEMBL document CHEMBL1201862, “PubChem BioAssay data set” (2004)
The source made the active and inactive calls.

Tests used:
[1] = mouse fibroblast viability loss – cell-based, cherry-pick samples, set 2, cytotoxicity control for T. cruzi growth inhibitor project, dose response (AID 651817); type: functional; settings: NIH3T3
Melanocortin receptor 4 [2] = biological target: T1, Melanocortin receptor 4 (Homo sapiens, UniProt P32245); assay: inhibitors of MC4R cAMP signaling – cell-based, TR-FRET, biased antagonists, dose response (AID 602298); type: functional;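 also: antagonist potency against agonist-stimulated cAMP production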
[3] = cAMP pathway inhibition in counterscreen cell line – TR-FRET cAMP detection, counter-screen for MC4R biased antagonist project, dose response (AID 602305); type: functional, cell-based;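 also: U2OS cells stimulated with forskolin near its EC80 as the cAMP inducer; potency is for inhibition of forskolin-stimulated cAMP signaling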
Melanocortin receptor 4 [4] = biological target: T1, Melanocortin receptor 4; type: functional, cell-based
[5] = biological target: Dual specificity tyrosine-phosphorylation-regulated kinase 1A (Rattus norvegicus, UniProt Q63470); type: biochemical, Homo sapiens
[6] = biological target: T2, Replicative DNA helicase DnaB (Mycobacterium tuberculosis, UniProt P9WMR3); assay: DnaB intein splicing inhibitors, dose response, biochemical, cell-free fluorescence (AID 449749); type: functional
T2 sequence (P9WMR3 whole entry): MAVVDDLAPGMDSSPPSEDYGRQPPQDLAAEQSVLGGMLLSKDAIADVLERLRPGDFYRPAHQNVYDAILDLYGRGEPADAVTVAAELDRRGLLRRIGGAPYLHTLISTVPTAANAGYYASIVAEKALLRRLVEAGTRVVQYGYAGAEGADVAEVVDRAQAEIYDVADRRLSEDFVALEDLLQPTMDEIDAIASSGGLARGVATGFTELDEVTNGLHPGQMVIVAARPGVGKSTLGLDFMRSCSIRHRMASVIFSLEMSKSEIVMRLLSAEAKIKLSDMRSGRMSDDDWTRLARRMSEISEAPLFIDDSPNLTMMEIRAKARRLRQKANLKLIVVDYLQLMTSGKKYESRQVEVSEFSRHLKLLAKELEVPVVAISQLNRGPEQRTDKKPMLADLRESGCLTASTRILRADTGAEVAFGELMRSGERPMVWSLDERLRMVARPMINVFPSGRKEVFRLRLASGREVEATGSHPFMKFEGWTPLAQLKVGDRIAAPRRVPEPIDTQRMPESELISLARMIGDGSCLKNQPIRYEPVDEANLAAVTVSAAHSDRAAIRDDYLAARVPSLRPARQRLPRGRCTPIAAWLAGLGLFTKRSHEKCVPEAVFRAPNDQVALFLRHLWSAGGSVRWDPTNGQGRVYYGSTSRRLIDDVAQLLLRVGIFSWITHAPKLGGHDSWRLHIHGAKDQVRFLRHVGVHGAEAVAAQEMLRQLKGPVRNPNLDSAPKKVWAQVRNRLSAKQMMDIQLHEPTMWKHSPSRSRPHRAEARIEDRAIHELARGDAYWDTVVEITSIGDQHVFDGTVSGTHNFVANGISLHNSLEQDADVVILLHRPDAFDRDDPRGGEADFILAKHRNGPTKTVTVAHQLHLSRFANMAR

Protein RecA = biological target: T3, Protein RecA (Mycobacterium tuberculosis, UniProt P9WHJ3); assay: Fluorescence Cell-Free Homogeneous Dose Retest to Identify Inhibitors of RecA-Intein Splicing Activity. [Related pubchem assays (depositor defined):AID2097, AID2223, AID489010, AID492950]; type: functional
T3 sequence (P9WHJ3 whole entry): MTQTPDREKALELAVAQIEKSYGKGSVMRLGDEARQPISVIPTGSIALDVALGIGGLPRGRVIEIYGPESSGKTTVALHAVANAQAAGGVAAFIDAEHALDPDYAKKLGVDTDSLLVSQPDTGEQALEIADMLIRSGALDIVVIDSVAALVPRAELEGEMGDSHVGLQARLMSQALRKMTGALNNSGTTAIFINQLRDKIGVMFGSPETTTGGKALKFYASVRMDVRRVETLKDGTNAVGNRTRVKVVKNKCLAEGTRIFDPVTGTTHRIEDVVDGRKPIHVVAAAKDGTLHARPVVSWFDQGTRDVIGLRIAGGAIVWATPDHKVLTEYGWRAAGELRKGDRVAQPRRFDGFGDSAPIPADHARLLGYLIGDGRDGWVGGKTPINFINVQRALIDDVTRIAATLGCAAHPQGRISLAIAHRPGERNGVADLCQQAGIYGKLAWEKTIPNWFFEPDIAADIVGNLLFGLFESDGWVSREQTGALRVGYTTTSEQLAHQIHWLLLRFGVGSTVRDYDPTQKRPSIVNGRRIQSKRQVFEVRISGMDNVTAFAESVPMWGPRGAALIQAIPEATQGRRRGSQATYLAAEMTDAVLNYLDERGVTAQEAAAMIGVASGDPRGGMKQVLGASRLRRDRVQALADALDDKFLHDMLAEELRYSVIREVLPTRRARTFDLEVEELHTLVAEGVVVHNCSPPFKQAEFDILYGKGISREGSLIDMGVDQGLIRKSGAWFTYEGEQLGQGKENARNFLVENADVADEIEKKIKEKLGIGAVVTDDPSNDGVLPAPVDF

[7] = viability loss in HeLa cells – cytotoxicity control for MgcRacGAP inhibitor project, dose response (AID 624300); type: functional
[8] = biological target: T4, Rac GTPase-activating protein 1 (Homo sapiens, UniProt Q9H0H5); assay: blockers of MgcRacGAP-driven Rac1 GTP hydrolysis – biochemical, ADP Hunter fluorescence, primary and confirmatory, confirmation (AID 624330); type: functional
T4 sequence (Q9H0H5 whole entry): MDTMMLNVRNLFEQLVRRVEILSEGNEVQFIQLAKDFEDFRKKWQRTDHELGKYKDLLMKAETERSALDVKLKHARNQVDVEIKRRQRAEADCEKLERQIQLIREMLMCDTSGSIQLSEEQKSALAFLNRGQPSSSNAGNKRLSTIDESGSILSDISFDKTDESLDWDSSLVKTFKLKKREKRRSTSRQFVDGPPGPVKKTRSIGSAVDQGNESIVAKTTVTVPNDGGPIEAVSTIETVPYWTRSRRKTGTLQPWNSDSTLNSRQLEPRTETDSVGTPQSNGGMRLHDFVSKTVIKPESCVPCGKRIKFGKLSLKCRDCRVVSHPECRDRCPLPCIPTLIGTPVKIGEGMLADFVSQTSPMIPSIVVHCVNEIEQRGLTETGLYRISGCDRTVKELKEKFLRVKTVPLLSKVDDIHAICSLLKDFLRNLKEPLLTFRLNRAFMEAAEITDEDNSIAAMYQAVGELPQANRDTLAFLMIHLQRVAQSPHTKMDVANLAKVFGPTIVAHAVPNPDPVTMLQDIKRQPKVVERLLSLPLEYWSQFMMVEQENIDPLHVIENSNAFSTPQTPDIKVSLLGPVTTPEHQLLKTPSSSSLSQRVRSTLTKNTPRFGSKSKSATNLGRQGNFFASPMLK

HEK293 = assay: EBV LMP1 TES2 canonical NF-kB signalling blockers – cell-based, HEK293, luciferase, cherry-pick, dose response (AID 588343); type: functional; settings: Homo sapiens
Vero = assay: cells; type: functional; settings: Chlorocebus sabaeus
[9] = biological target: T5, Polyadenylate-binding protein 1 (Homo sapiens, UniProt P11940); assay: MLLE binding blockers, Cy5 peptide tracer – biochemical, fluorescence polarization, Cy5-PAM2 peptide, secondary, miRNA deadenylation inhibitor project, dose response (AID 602260); type: functional; settings: read-out: IC50_Mean
Interleukin-8 [10] = biological target: T6, Interleukin-8 (Homo sapiens, UniProt P10145); assay: Dose Response confirmation of uHTS small molecule hits for cystic fibrosis induced NFkb Inhibitors in a PAF-induced IL8 counterscreen.; type: functional; settings: read-out: IC50_Mean
T6 sequence (P10145 whole entry): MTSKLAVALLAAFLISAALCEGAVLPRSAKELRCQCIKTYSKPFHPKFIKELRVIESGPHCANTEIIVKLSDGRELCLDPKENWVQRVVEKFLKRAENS

[11] = biological target: T5, Polyadenylate-binding protein 1; assay: MLLE domain peptide-binding blockers, IC50 – biochemical, fluorescence polarization, FITC-PAM2 peptide, dose response (AID 602259); type: functional; settings: read-out: IC50_Mean
Interleukin-8 [12] = biological target: T6, Interleukin-8; assay: Dose Response confirmation of uHTS small molecule hits for cystic fibrosis induced NFkb Inhibitors in a TNFa-induced IL8 counterscreen.; type: functional; settings: read-out: IC50_Mean

T1 sequence (P32245 whole entry): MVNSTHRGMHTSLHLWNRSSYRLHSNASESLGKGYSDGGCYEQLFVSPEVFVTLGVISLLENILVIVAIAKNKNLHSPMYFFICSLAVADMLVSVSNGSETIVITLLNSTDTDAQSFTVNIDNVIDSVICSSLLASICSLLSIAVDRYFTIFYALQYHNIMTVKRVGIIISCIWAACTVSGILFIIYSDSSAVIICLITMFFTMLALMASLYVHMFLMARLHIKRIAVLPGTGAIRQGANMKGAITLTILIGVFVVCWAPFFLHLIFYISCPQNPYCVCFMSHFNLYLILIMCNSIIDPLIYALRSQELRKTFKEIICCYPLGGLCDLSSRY
T5 sequence (P11940 whole entry): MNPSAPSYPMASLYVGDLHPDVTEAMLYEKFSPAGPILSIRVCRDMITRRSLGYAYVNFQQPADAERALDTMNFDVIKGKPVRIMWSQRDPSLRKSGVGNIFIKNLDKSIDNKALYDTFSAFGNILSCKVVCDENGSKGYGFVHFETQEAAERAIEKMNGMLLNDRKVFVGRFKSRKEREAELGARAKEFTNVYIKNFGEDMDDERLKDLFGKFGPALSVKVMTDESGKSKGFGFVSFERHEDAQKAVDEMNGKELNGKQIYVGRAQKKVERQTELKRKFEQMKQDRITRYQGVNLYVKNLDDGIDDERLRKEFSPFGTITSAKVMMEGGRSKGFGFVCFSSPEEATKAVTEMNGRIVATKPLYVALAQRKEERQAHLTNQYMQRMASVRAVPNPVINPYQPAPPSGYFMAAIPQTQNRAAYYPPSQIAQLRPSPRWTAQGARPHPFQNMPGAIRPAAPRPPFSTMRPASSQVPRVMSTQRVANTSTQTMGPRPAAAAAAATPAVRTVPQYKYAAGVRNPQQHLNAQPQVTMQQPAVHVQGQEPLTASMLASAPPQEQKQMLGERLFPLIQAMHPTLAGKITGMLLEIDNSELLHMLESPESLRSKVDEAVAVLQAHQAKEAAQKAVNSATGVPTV

With `Cc1ccc(S(=O)(=O)Nc2ccc3c(c2)CC(=O)N([C@@H](C)CO)C[C@@H](C)[C@H](CN(C)Cc2ccccc2)O3)cc1` the AC50 [1] was 39 µM (inactive).

With `COc1cc([N+](=O)[O-])ccc1NC(=S)NC(=O)CC(C)(C)C` the IC50 (Melanocortin receptor 4 [2]) was > 64.6 µM (inactive) and the IC50 [3] was > 64.6 µM (inactive).

In the case of `CC(=O)Nc1cc(-c2cccc(F)c2)cn2c(-c3ccc(F)cc3)cnc12`, the EC50 (Melanocortin receptor 4 [4]) is reported as > 89.2 µM (inactive).

For `Oc1ccc(NC(=S)N=Nc2c(O)[nH]c3ccc(Br)cc23)cc1`, the AC50 [5] was 1.2 µM (active), the AC50 [6] was 12.1 µM (active) and the EC50 (Protein RecA) was 13.7 µM (active). The CC50 [7] was 61.5 µM (active) and the IC50 [8] was 152 µM (active).

For `CCCCCCCCNS(=O)(=O)CCNCCc1ccccc1`, the EC50 (Melanocortin receptor 4 [4]) was > 89.1 µM (inactive).

For `CCOc1ccc(-c2cc(C(=O)N/N=C/c3ccc(O)cc3)c3ccccc3n2)cc1`, the AC50 (HEK293) was 5.12 µM (active) and the CC50 (Vero) was 14.9 µM (active).

With `O=S1(=O)CCC(NC(=S)SCCOc2ccccc2)C1` (stereo unspecified) the IC50 [9] was > 66 µM (inactive), the IC50 (Interleukin-8 [10]) was 3.07 µM (active) and the IC50 [11] was > 66 µM (inactive). The IC50 (Interleukin-8 [12]) was 3.66 µM (active).
